Experiments:
[1] = test system: MEG-01 xenografts; assay: Tail-bleeding assay in MEG-01 xenograft mice; assay type: in vivo; conditions: DMAT treated xenograft mice vs normal mice or control mice
Procedure: At the end of the trial, tail-bleeding times assay was performed and blood was collected for blood counts from live and anesthetized mice. After these experiments were completed mice were sacrificed and tumors and organs were collected. Samples were fixed in formalin for further processing.
Tail-bleeding assay. Tail-bleeding times are important to investigate whether the platelets could establish hemostasis in vivo. Platelet aggregation and clot retraction in response to physiologic agonists adenosine diphosphate (ADP), epinephrine, and thrombin will affect tail-bleeding times.
Normal tail-bleeding times are an average of 1.5-2 minutes in C57BL mouse strain.
Pre-warm tubes of saline (PBS) at 37° C. and maintained at this temperature during the measurements were used. Inhalation of isoflurane vapor or, alternatively, intraperitoneal injection of avertin was used to induce general anesthesia. Using a sharp new razor or scalpel blade, tails were cut exactly 0.5 cm of the distal tip of the tail of the adult mouse and immediately inserted into the pre-warmed tube of saline. A stopclock was started at this time. The tail was hold gently, near its base, to avoid a “tourniquet effect.” Venous blood flowing into the tube can be observed and can it can be detected when this bleeding stops. The stopclock provides an accurate bleeding time.

[2] = test system: tumor tissue and organs; assay: Hematoxylin & eosin staining of tumor tissue and organs of treated xenograft mice (all cell lines); assay type: in vivo
Procedure: Hematoxylin & eosin staining of tumor tissue and organs. After euthanasia with CO2, mice were supposed to necropsy. Tumors were collected from under the skin from both flanks and were measured for the last time and then fixed in formalin fixative. Spleen, liver, kidney, brain, lungs and legs were collected and fixed. Spleens were also measured (as length, […]). Fresh tissue was immersed immediately into liquid nitrogen and kept frozen at −80° C. Fixed tissue was embedded in paraffin and next processed for H&E (the basic dye hematoxylin, and the alcohol-based synthetic material, eosin) by the Cleveland Clinic Histology Core facility. Sections (4-μm thick) were stained with hematoxylin and eosin and evaluated for pathologic changes in a blinded fashion. H&E staining gives morphological information (vascularization, normal proliferating tissue, necrosis and apoptosis of the tissue).

[3] = In vivo toxicity study for DMAT; parameters: species or system mouse
Procedure: In vivo toxicity study for DMAT. A male nude mouse (without tumors) was treated with DMAT to determine a toxicity level. A saturated solution of DMAT in DMSO was inoculated daily in the neck subcutaneously (100 μl of 100 mg/ml DMAT in DMSO). Therefore this animal received 10 mg DMAT per day. After 2 weeks this animal was sacrificed and organs were collected for further analysis.

[4] = test system: MEG-01 cells; assay: Annexin V-FITC and PI apoptosis assay, MEG-01; assay type: cell-based, human
Procedure: Flow cytometric analysis. Cells were analyzed using a FACSCalibur flow cytofluorometer (Becton-Dickinson), with CellQuestPro ver. 3.3 software. The data was further analyzed with FlowJo ver. 6.2, and WinMDI 2.8 software. Proper gating was performed to characterize each cell population (MEG-01 cells and platelets). The population that corresponds to platelets (small, granulated particles), is PI negative because thrombocytes are anucleated cells (only the viable cells were considered) and were distinguished by their capacity to become activated, undergoing shape change in response to agonist and to show phosphatidylserine (PS) exposure when activated. Platelets were further separated from the megakaryocytic cells, by differential centrifugation, considering the size difference between these cell populations (1-5 μm for platelets and 35-150 μm for megakaryocytic cell line MEG-01) and analyzed separately. Voltage and channels settings were adjusted accordingly. Analyzed values were obtained with WinMDI ver. 2.8.
Apoptosis Assays using Flow Cytometry with Annexin V-FITC and propidium iodide (PI). For induction of typical apoptosis, cells were grown in the presence of 1 μM staurosporine (Sigma-Aldrich) for 6 hours. The staurosporine treated cells were stained as follows: control 1 with PI, control 2 with Annexin V-FITC and control 3 both PI and Annexin V-FITC in order to have the brightest controls for compensation and proper collection of the flow cytometry data. Cell necrosis was induced by heat shock (65° C. for 30 minutes). The stained control, both PI and Annexin V-FITC labeled, was then used as the reference in establishing the level of apoptosis induced by the treatments. Data was collected on logarithmic modes, two-colors. Annexin V-FITC corresponds to FL1 H channel, and PI to FL3H or FL2H channels.
Annexin V-FITC and PI apoptosis assay staining protocol. Apoptosis Annexin V-FITC and PI kit from BD Biosciences, CA, USA, was used. 10^5-10^6 cells were stained with 50 μg/ml PI and with 0.5 μg/ml FITC-labeled Annexin V using the staining protocol provided by the supplier. Samples were then analyzed immediately by flow cytometry.

[5] = 200 mg/kg per day DMAT (in DMSO), subcutaneous in the neck, 2 weeks

tail bleeding times [1]: in certain instances, longer
SMILES: CN(C)c1nc2c(Br)c(Br)c(Br)c(Br)c2[nH]1 [DMAT, 2-dimethylamino-4,5,6,7-tetrabromo-1H-benzimidazole]
necrotic and apoptotic areas of tumors from treated mice vs untreated (DMSO) control tumors ([2]; all tumors, hematoxylin-eosin staining): high necrotic and apoptotic areas
other organs of treated mice, hematoxylin-eosin staining ([2]; mouse, in vivo): appeared normal
histological analyses of all organs vs control animal (not injected) ([3]; 10 mg/day/animal for 2 weeks): did not show any difference
behavior [3, 5]: generally normal behavior
liver size [3, 5]: appeared to have increased in size
injection site ([3]; 200 mg/kg per day DMAT (in DMSO), subcutaneous in the neck, 2 weeks, male athymic nude mouse): irritated and swollen like a cyst
cytotoxicity (necrosis) in MEG-01 cells [4]: without being cytotoxic
level of necrotic cells ([4]; 20 μM DMAT, 24 hours, control untreated 0.87%): 0.39%
level of apoptotic cells ([4]; 20 μM DMAT, 24 hours, control untreated 8.7%): 19%
dose and time dependence of induced apoptosis and phenotype change ([4]; 24 to 96 hours): dose and time dependent

Reference: patent US20090054507A1, “CONTROL OF MALIGNANT CELLS BY KINASE INHIBITION” (CLEVELAND STATE UNIVERSITY, priority 2006, published 2009)
